Consider 28 molecules from US20100311714A1, “1H-IMIDAZO[4,5-c]QUINOLINONE COMPOUNDS” (priority 2009, published 2010).

Structures are written as SMILES.

The test system of this test is PKB Ser473 phosphorylation in Rat1-myr-HA-p110 beta cells. Kind of test: Reverse protein array, PKB Ser473 phosphorylation in Rat1-myr-HA-p110 beta cells. Format: cell-based. The settings on record: Rattus norvegicus, 0.5 h, 30 minutes compound incubation, read-out: p-PKB/IC50_beta.
Take `Cn1c(=O)n(-c2cccnc2F)c2c3cc(-c4cnc(N)c(C(F)(F)F)c4)ccc3ncc21` [Example 6.2, 8-(6-Amino-5-trifluoromethyl-pyridin-3-yl)-1-(2-fluoro-pyridin-3-yl)-3-methyl-1,3-dihydro-imidazo[4,5-c]quinolin-2-one]: the IC50 was 10.2 nM.

In the case of `Cc1nc(F)ccc1-n1c(=O)n(C)c2cnc3ccc(-c4cnc(N)c(C(F)(F)F)c4)cc3c21` [Example 7.1, 8-(6-Amino-5-trifluoromethyl-pyridin-3-yl)-1-(6-fluoro-2-methyl-pyridin-3-yl)-3-methyl-1,3-dihydro-imidazo[4,5-c]quinolin-2-one], the IC50 amounted to 13.4 nM.

As for `Cc1nc(F)ccc1-n1c(=O)n(C)c2cnc3ccc(-c4cnc5c(ccn5C)c4)cc3c21` [Example 7.2, 1-(6-Fluoro-2-methyl-pyridin-3-yl)-3-methyl-8-(1-methyl-1H-pyrrolo[2,3-b]pyridin-5-yl)-1,3-dihydro-imidazo[4,5-c]quinolin-2-one], the IC50 turned out to be 29.5 nM.

For the molecule `CCOc1ccc(-c2ccc3ncc4c(c3c2)n(-c2ccc(F)nc2C)c(=O)n4C)cn1` [Example 7.3, 8-(6-Ethoxy-pyridin-3-yl)-1-(6-fluoro-2-methyl-pyridin-3-yl)-3-methyl-1,3-dihydro-imidazo[4,5-c]quinolin-2-one], the IC50 is 43.8 nM.

As for `CNc1ccc(-c2ccc3ncc4c(c3c2)n(-c2ccc(F)nc2C)c(=O)n4C)cn1` [Example 7.4, 1-(6-Fluoro-2-methyl-pyridin-3-yl)-3-methyl-8-(6-methylamino-pyridin-3-yl)-1,3-dihydro-imidazo[4,5-c]quinolin-2-one], the IC50 was found to be 8.6 nM.

Consider `CCOc1cc(-c2ccc3ncc4c(c3c2)n(-c2ccc(F)nc2C)c(=O)n4C)cnc1COC` [Example 7.5, 8-(5-Ethoxy-6-methoxymethyl-pyridin-3-yl)-1-(6-fluoro-2-methyl-pyridin-3-yl)-3-methyl-1,3-dihydro-imidazo[4,5-c]quinolin-2-one], for which the IC50 was determined as 82.1 nM.

Regarding `Cc1nc(F)ccc1-n1c(=O)n(C)c2cnc3ccc(-c4cncc(C(C)(C)O)c4)cc3c21` [Example 7.8, 1-(6-Fluoro-2-methyl-pyridin-3-yl)-8-[5-(1-hydroxy-1-methyl-ethyl)-pyridin-3-yl]-3-methyl-1,3-dihydro-imidazo[4,5-c]quinolin-2-one], the IC50 came to 68.6 nM.

As for `CCOc1ccc(-c2ccc3ncc4c(c3c2)n(-c2ccc(N3CCNCC3)nc2OC)c(=O)n4C)cn1` [Example 9.1, 8-(6-Ethoxy-pyridin-3-yl)-1-(2-methoxy-6-piperazin-1-yl-pyridin-3-yl)-3-methyl-1,3-dihydro-imidazo[4,5-c]quinolin-2-one], the IC50 stood at 33.3 nM.

As for `COc1nc(N2CCNCC2)ccc1-n1c(=O)n(C)c2cnc3ccc(-c4cnc(N)c(C(F)(F)F)c4)cc3c21` [Example 9.2, 8-(6-Amino-5-trifluoromethyl-pyridin-3-yl)-1-(2-methoxy-6-piperazin-1-yl-pyridin-3-yl)-3-methyl-1,3-dihydro-imidazo[4,5-c]quinolin-2-one], the IC50 amounted to 20.6 nM.

As to `Cc1nc(N2CCN(C)C(=O)C2)ccc1-n1c(=O)n(C)c2cnc3ccc(-c4cnc(N)c(C(F)(F)F)c4)cc3c21` [Example 21.1, 8-(6-Amino-5-trifluoromethyl-pyridin-3-yl)-3-methyl-1-[2-methyl-6-(4-methyl-3-oxo-piperazin-1-yl)-pyridin-3-yl]-1,3-dihydro-imidazo[4,5-c]quinolin-2-one], the IC50 was found to be 5.3 nM.

With `CCOc1cc(-c2ccc3ncc4c(c3c2)n(-c2ccc(OCCOC)nc2C)c(=O)n4C)cnc1COC` [Example 22.1, 8-(5-Ethoxy-6-methoxymethyl-pyridin-3-yl)-1-[6-(2-methoxy-ethoxy)-2-methyl-pyridin-3-yl]-3-methyl-1,3-dihydro-imidazo[4,5-c]quinolin-2-one], the IC50 turned out to be 66.7 nM.

With `Cc1nc(N2CCC2)ccc1-n1c(=O)n(C)c2cnc3ccc(-c4cncc(N5CCC5)c4)cc3c21` [Example 23.1, 1-(6-Azetidin-1-yl-2-methyl-pyridin-3-yl)-8-(5-azetidin-1-yl-pyridin-3-yl)-3-methyl-1,3-dihydro-imidazo[4,5-c]quinolin-2-one], the IC50 came out at 15.1 nM.

For the molecule `COCc1ncc(-c2ccc3ncc4c(c3c2)n(-c2ccc(N3CCC3)nc2C)c(=O)n4C)cc1OC(C)C` [Example 23.2, 1-(6-Azetidin-1-yl-2-methyl-pyridin-3-yl)-8-(5-isopropoxy-6-methoxymethyl-pyridin-3-yl)-3-methyl-1,3-dihydro-imidazo[4,5-c]quinolin-2-one], the IC50 came to 53.4 nM.

In the case of `Cc1nc(N2CCC2)ccc1-n1c(=O)n(C)c2cnc3ccc(-c4cncc(C(C)(C)O)c4)cc3c21` [Example 23.3, 1-(6-Azetidin-1-yl-2-methyl-pyridin-3-yl)-8-[5-(1-hydroxy-1-methyl-ethyl)-pyridin-3-yl]-3-methyl-1,3-dihydro-imidazo[4,5-c]quinolin-2-one], the IC50 was found to be 23.1 nM.

Regarding `CNc1ccc(-c2ccc3ncc4c(c3c2)n(-c2ccc(N3CCC3)nc2C)c(=O)n4C)cn1` [Example 23.4, 1-(6-Azetidin-1-yl-2-methyl-pyridin-3-yl)-3-methyl-8-(6-methylamino-pyridin-3-yl)-1,3-dihydro-imidazo[4,5-c]quinolin-2-one], the IC50 was determined as 6.8 nM.

Take `CCOc1cc(-c2ccc3ncc4c(c3c2)n(-c2ccc(N3CCC3)nc2C)c(=O)n4C)cnc1COC` [Example 23.5, 1-(6-Azetidin-1-yl-2-methyl-pyridin-3-yl)-8-(5-ethoxy-6-methoxymethyl-pyridin-3-yl)-3-methyl-1,3-dihydro-imidazo[4,5-c]quinolin-2-one]: the IC50 came out at 98.6 nM.

In the case of `COCc1ncc(-c2ccc3ncc4c(c3c2)n(-c2ccc(N3CCC3)nc2C)c(=O)n4C)cc1OC` [Example 23.6, 1-(6-Azetidin-1-yl-2-methyl-pyridin-3-yl)-8-(5-methoxy-6-methoxymethyl-pyridin-3-yl)-3-methyl-1,3-dihydro-imidazo[4,5-c]quinolin-2-one], the IC50 came out at 103 nM.

Regarding `CCNc1cc(-c2ccc3ncc4c(c3c2)n(-c2ccc(N3CCC3)nc2C)c(=O)n4C)cnc1CO` [Example 23.8, 1-(6-Azetidin-1-yl-2-methyl-pyridin-3-yl)-8-(5-ethylamino-6-hydroxymethyl-pyridin-3-yl)-3-methyl-1,3-dihydro-imidazo[4,5-c]quinolin-2-one], the IC50 was less than 4.57 nM.

For the molecule `Cc1nc(N2CCC2)ccc1-n1c(=O)n(C)c2cnc3ccc(-c4cncc(OC(C)C)c4)cc3c21` [Example 23.9, 1-(6-Azetidin-1-yl-2-methyl-pyridin-3-yl)-8-(5-isopropoxy-pyridin-3-yl)-3-methyl-1,3-dihydro-imidazo[4,5-c]quinolin-2-one], the IC50 was determined as 136 nM.

For `CNc1ncc(-c2ccc3ncc4c(c3c2)n(-c2ccc(N3CC(F)(F)C3)nc2C)c(=O)n4C)cn1` [Example 24.1, 1-[6-(3,3-Difluoro-azetidin-1-yl)-2-methyl-pyridin-3-yl]-3-methyl-8-(2-methylamino-pyrimidin-5-yl)-1,3-dihydro-imidazo[4,5-c]quinolin-2-one], the IC50 turned out to be 12.7 nM.

For `CCOc1cc(-c2ccc3ncc4c(c3c2)n(-c2ccc(N3CCCC3)nc2C)c(=O)n4C)cnc1COC` [Example 25.2, 8-(5-Ethoxy-6-methoxymethyl-pyridin-3-yl)-3-methyl-1-(2-methyl-6-pyrrolidin-1-yl-pyridin-3-yl)-1,3-dihydro-imidazo[4,5-c]quinolin-2-one], the IC50 came to 39.9 nM.

For the molecule `Cc1nc(N2CCCC2)ccc1-n1c(=O)n(C)c2cnc3ccc(-c4cncc(C(C)(C)O)c4)cc3c21` [Example 25.3, 8-[5-(1-Hydroxy-1-methyl-ethyl)-pyridin-3-yl]-3-methyl-1-(2-methyl-6-pyrrolidin-1-yl-pyridin-3-yl)-1,3-dihydro-imidazo[4,5-c]quinolin-2-one], the IC50 is 30.6 nM.

Consider `Cc1nc(N(C)CCO)ccc1-n1c(=O)n(C)c2cnc3ccc(-c4cnc(N)c(C(F)(F)F)c4)cc3c21` [Example 26.1, 8-(6-Amino-5-trifluoromethyl-pyridin-3-yl)-1-{6-[(2-hydroxy-ethyl)-methyl-amino]-2-methyl-pyridin-3-yl}-3-methyl-1,3-dihydro-imidazo[4,5-c]quinolin-2-one], for which the IC50 is less than 4.57 nM.

Consider `CNc1ncc(-c2ccc3ncc4c(c3c2)n(-c2ccc(N(C)CCO)nc2C)c(=O)n4C)cn1` [Example 26.2, 1-{6-[(2-Hydroxy-ethyl)-methyl-amino]-2-methyl-pyridin-3-yl}-3-methyl-8-(2-methylamino-pyrimidin-5-yl)-1,3-dihydro-imidazo[4,5-c]quinolin-2-one], for which the IC50 is less than 4.57 nM.

In the case of `CNc1ncc(-c2ccc3ncc4c(c3c2)n(-c2ccc(N3CCC(O)C3)nc2C)c(=O)n4C)cn1` (stereo not shown) [Example 27.2, 1-[6-(3-Hydroxy-pyrrolidin-1-yl)-2-methyl-pyridin-3-yl]-3-methyl-8-(2-methylamino-pyrimidin-5-yl)-1,3-dihydro-imidazo[4,5-c]quinolin-2-one], the IC50 stood at 11.3 nM.

For `COC1CCN(c2ccc(-n3c(=O)n(C)c4cnc5ccc(-c6cncc(C(C)(C)O)c6)cc5c43)c(C)n2)C1` (stereo not shown) [Example 28.1, 8-[5-(1-Hydroxy-1-methyl-ethyl)-pyridin-3-yl]-1-[6-(3-methoxy-pyrrolidin-1-yl)-2-methyl-pyridin-3-yl]-3-methyl-1,3-dihydro-imidazo[4,5-c]quinolin-2-one], the IC50 was 36.7 nM.

For `CCNc1cc(-c2ccc3ncc4c(c3c2)n(-c2ccc(N3CC(O)C3)nc2C)c(=O)n4C)cnc1CO` [Example 29.2, 8-(5-Ethylamino-6-hydroxymethyl-pyridin-3-yl)-1-[6-(3-hydroxy-azetidin-1-yl)-2-methyl-pyridin-3-yl]-3-methyl-1,3-dihydro-imidazo[4,5-c]quinolin-2-one], the IC50 was found to be 32.7 nM.

Take `CNc1ncc(-c2ccc3ncc4c(c3c2)n(-c2ccc(N3CC(O)C3)nc2C)c(=O)n4C)cc1F` [Example 29.3, 8-(5-Fluoro-6-methylamino-pyridin-3-yl)-1-[6-(3-hydroxy-azetidin-1-yl)-2-methyl-pyridin-3-yl]-3-methyl-1,3-dihydro-imidazo[4,5-c]quinolin-2-one]: the IC50 worked out at 31.9 nM.
